In this assay the target is soluble guanylate cyclase (sGC) (Homo sapiens (Human), UniProt Q02108+Q02153). Kind of assay: sGC-HEK-cGMP assay with SNP incubation, LC/MS detection (Example 2A). The class given is cell-based. The following applies: HEK293 cells, 10 μM SNP, LC/MS detection; for Emax: 100% = BAY 41-2272 at 10 μM, read-out: HEK assay Emax - unconstrained (%). The protocol:
Human embryonic kidney cells (HEK293), endogenously expressing soluble guanylate cyclase (sGC), were used to evaluate the activity of test compounds. Compounds stimulating the sGC receptor should cause an increase in the intracellular concentration of cGMP. HEK 293 cells were seeded in Dulbecco's Modification of Eagle's Medium supplemented with fetal bovine serum (10% final) and L-glutamine (2 mM final) in a 200 L volume at a density of 1×10^5 cells/well in a poly-D-lysine coated 96 well flat bottom plate and grown overnight at 37° C. Medium was aspirated and cells were washed with 1× Hank's Buffered Saline Salt Solution (200 μL). Cells were then incubated for 15 minutes at 37° C. with 200 μL of a 0.5 mM 3-isobutyl-1-methylxanthine (IBMX) solution. Test article and sodium nitroprusside solutions (x μM concentration for test article solution and 10 μM concentration for SNP solution; wherein x is one of the following concentrations: 30 μM, 10 μM, 3 μM, 1 μM, 0.3 μM, 0.1 μM, 0.03 μM, 0.01 μM, 0.003 μM, 0.001 μM, 0.0003 μM or 0.0001 μM) were then added to the assay mixture (2 μL each) and the resulting mixture incubated at 37° C. for 10 minutes. After the 10 minute incubation, the assay mixture was aspirated and 0.1M HCl (200 μL) was added to the cells. The plate was incubated at 4° C. for 30 minutes in the 0.1M HCl to stop the reaction and lyse the cells. The plates were then centrifuged at 1,200 g for 5 minutes at room temperature. Supernatants were collected and transferred to a new flat bottom 96 well plate for analysis by HPLC-MS. Vehicle controls were carried out using DMSO (1%) solutions. A known sGC stimulator, BAY 41-2272, was used as the positive control. Samples were diluted with an equal volume of 1 M Ammonium Acetate (pH 7) to neutralize samples for better chromatography. A 2× cGMP standard solution was prepared in 0.1 M HCl and then diluted with an equal volume of 1 M Ammonium Acetate, with the following final concentrations in nM: 1024, 512, 256, 128, 64, 32, 16, 8, 4, 2, 1. cGMP concentrations in the test plates were determined from each sample using the LC/MS conditions shown in Table 2 below and the calculated cGMP standard curve. EC50 values were calculated from concentration-response curves generated with GraphPad Prism Software. Data were normalized to a high control using the following equation: 100*(Sample−Low Control)/(High Control−Low Control), where the low control is the average of 6 samples treated with 1% DMSO, and the high control is the average of 8-12 samples treated with 10 uM BAY 41-2272. Data were fit using a non-linear regression, sigmoidal dose response, 3 parameter fits.

The mark [1] stands for this setting: top of curve not fitted to 100%, read-out: HEK assay EC50 - unconstrained.

Like-named read-outs stand apart in the source and are kept apart here.

From patent publication US10183021B2, “sGC stimulators” (Ironwood Pharmaceuticals, Inc., priority 2013, dated 2019) come the findings set out here.

Usually Emax stands for the greatest response seen or fitted, relative to the assay's reference. As usually defined, the EC50 is the concentration giving half of the maximal effect.

soluble guanylate cyclase (sGC), sequence (Q02153 whole entry): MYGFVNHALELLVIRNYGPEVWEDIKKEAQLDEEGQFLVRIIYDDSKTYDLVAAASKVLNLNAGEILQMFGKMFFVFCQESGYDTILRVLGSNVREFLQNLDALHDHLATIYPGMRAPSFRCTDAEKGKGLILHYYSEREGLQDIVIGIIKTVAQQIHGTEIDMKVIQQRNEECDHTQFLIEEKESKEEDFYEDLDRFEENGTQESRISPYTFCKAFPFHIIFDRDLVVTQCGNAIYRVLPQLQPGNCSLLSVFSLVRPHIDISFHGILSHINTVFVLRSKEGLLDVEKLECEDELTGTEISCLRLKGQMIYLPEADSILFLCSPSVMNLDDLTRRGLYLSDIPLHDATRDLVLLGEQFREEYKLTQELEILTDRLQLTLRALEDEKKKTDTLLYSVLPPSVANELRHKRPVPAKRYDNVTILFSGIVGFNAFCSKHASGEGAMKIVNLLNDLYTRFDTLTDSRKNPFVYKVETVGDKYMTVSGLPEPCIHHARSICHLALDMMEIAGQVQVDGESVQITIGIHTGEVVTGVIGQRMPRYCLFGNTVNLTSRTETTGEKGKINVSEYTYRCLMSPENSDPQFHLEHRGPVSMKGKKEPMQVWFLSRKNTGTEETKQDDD
soluble guanylate cyclase (sGC), sequence (Q02108 whole entry): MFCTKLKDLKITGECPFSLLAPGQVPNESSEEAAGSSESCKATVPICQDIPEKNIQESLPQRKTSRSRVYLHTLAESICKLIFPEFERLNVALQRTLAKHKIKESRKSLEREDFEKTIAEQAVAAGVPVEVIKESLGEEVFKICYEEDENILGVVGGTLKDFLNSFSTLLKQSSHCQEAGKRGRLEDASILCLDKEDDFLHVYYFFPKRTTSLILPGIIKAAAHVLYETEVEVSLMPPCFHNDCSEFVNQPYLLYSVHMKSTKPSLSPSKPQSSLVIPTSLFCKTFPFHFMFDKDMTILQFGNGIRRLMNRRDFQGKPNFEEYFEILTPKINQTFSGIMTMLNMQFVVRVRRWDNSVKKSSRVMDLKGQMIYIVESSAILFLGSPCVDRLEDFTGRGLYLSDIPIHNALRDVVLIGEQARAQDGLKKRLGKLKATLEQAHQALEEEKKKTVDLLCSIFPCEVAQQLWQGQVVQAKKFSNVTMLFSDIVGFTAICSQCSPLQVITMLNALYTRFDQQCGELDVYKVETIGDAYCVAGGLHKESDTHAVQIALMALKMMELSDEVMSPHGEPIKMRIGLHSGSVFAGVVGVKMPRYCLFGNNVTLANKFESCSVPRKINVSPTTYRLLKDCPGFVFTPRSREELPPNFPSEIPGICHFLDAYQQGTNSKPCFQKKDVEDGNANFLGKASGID

With `O=C(O)C1CCCCCN1c1nc(-c2cc(-c3ccon3)n(Cc3ccccc3F)n2)ncc1F` (centres unmarked) [Compound I-75], the maximum response (Emax) lay in the range of 60 to 80%. In addition, the EC50 under setting [1] lay within 100 to 500 nM.

Take `O=C(O)C1CCN(c2nc(-c3cc(-c4ccon4)n(Cc4ccccc4F)n3)ncc2F)C1` (centres unmarked) [Compound I-76]: the Emax is 60 to 80%. Under setting [1], the EC50 fell in the range of 500 to 1000 nM.

Take `O=C(O)[C@H](Cc1ccccc1)Nc1nc(-c2cc(-c3ccon3)n(Cc3ccccc3F)n2)ncc1F` [Compound I-80]: the Emax lay in the range of 80 to 100%. In addition, the EC50 under setting [1] was 500 to 1000 nM.

`OCC1C[C@H]2CC[C@@H](C1)N2c1nc(-c2cc(-c3ccon3)n(Cc3ccccc3F)n2)ncc1F` (some centres unmarked) [Compound I-82]: the Emax lay in the range of 60 to 80%. For the same molecule, the EC50 under setting [1] was in the range of 100 to 500 nM.

Consider `O=C(O)C1CN(c2nc(-c3cc(-c4ccon4)n(Cc4ccccc4F)n3)ncc2F)CCO1` (centres unmarked) [Compound I-83], for which the EC50 (top of curve fitted to 100%, read-out: HEK assay EC50 - constrained) was over 10000 nM.

Take `CC(C)[C@@H](Nc1nc(-c2cc(-c3ccon3)n(Cc3ccccc3F)n2)ncc1F)C(=O)O` [Compound I-86]: the Emax is 80 to 100%. Moreover, the EC50 under setting [1] is 100 to 500 nM.

As for `O=C(O)[C@H]1Cc2ccccc2N1c1nc(-c2cc(-c3ccon3)n(Cc3ccccc3F)n2)ncc1F` [Compound I-91], the Emax was 40 to 60%. In addition, under setting [1], the EC50 is 5000 to 10000 nM.

As for `O=C(O)C1C2CCC(C2)N1c1nc(-c2cc(-c3ccon3)n(Cc3ccccc3F)n2)ncc1F` (centres unmarked) [Compound I-92], the Emax lay within 60 to 80%. Moreover, the EC50 under setting [1] is 1000 to 5000 nM.

In the case of `O=C(O)C1(Nc2nc(-c3cc(-c4ccon4)n(Cc4ccccc4F)n3)ncc2F)CCC1` [Compound I-94], the Emax fell in the range of 60 to 80%. In addition, under setting [1], the EC50 fell in the range of 1000 to 5000 nM.

As for `O=C(O)C1c2ccccc2CCN1c1nc(-c2cc(-c3ccon3)n(Cc3ccccc3F)n2)ncc1F` (centres unmarked) [Compound I-97], the Emax lay in the range of 60 to 80%. In addition, under setting [1], the EC50 was in the range of 1 to 100 nM.

In the case of `Cc1noc(C2CCCCN2c2nc(-c3cc(-c4ccon4)n(Cc4ccccc4F)n3)ncc2F)n1` (centres unmarked) [Compound I-98], the Emax is 40 to 60%. In addition, the EC50 under setting [1] is 1000 to 5000 nM.

As for `O=C(O)C(Nc1nc(-c2cc(-c3ccon3)n(Cc3ccccc3F)n2)ncc1F)C1COC1` (centres unmarked) [Compound I-102], the Emax lay within 60 to 80%. Further, the EC50 under setting [1] fell in the range of 1000 to 5000 nM.

As for `CC(C)C[C@@H](Nc1nc(-c2cc(-c3ccon3)n(Cc3ccccc3F)n2)ncc1F)C(=O)O` [Compound I-103], the Emax lay within 80 to 100%. For the same molecule, the EC50 under setting [1] lay in the range of 1 to 100 nM.

For `NC(=O)C1CCCCN1c1nc(-c2cc(-c3ccon3)n(Cc3ccccc3F)n2)ncc1F` (centres unmarked) [Compound I-105], the Emax is 40 to 60%. In addition, the EC50 under setting [1] lay in the range of 100 to 500 nM.

As to `O=C1CCCCCN1CCCNc1nc(-c2cc(-c3ccon3)n(Cc3ccccc3F)n2)ncc1F` [Compound I-109], the Emax is 60 to 80%. The EC50 under setting [1] is 100 to 500 nM.

In the case of `CC(C)(C)OC(=O)N1CCC(Nc2nc(-c3cc(-c4ccon4)n(Cc4ccccc4F)n3)ncc2F)(C(=O)O)CC1` [Compound I-110], the Emax was in the range of 20 to 40%. For the same molecule, the EC50 under setting [1] is over 10000 nM.

Take `O=C(O)[C@@H](CO)Nc1nc(-c2cc(-c3ccon3)n(Cc3ccccc3F)n2)ncc1F` [Compound I-112]: the Emax was 20 to 40%. Also, the EC50 under setting [1] was in the range of 1000 to 5000 nM.

Take `Fc1ccccc1Cn1nc(-c2ncc(F)c(N3CCn4cnnc4C3)n2)cc1-c1ccon1` [Compound I-113]: the maximal response (Emax) fell in the range of 60 to 80%. Further, under setting [1], the EC50 fell in the range of 500 to 1000 nM.

Consider `CCOC(=O)c1nnc2n1CCN(c1nc(-c3cc(-c4ccon4)n(Cc4ccccc4F)n3)ncc1F)C2` [Compound I-115], for which the Emax is 40 to 60%. Besides, the EC50 under setting [1] lay within 1 to 100 nM.

With `O=C(O)[C@@H](Cc1ccccc1)Nc1nc(-c2cc(-c3ccon3)n(Cc3ccccc3F)n2)ncc1F` [Compound I-116], the Emax lay in the range of 60 to 80%. Moreover, the EC50 under setting [1] fell in the range of 100 to 500 nM.

`O=C(O)[C@@H](Nc1nc(-c2cc(-c3ccon3)n(Cc3ccccc3F)n2)ncc1F)c1ccccc1` [Compound I-117]: the Emax lay within 40 to 60%. The EC50 under setting [1] fell in the range of 1000 to 5000 nM.

As for `O=C(O)[C@H](Nc1nc(-c2cc(-c3ccon3)n(Cc3ccccc3F)n2)ncc1F)c1ccccc1` [Compound I-118], the Emax lay in the range of 80 to 100%. Moreover, under setting [1], the EC50 was 1000 to 5000 nM.

`O=C(O)C1Cc2ccccc2CN1c1nc(-c2cc(-c3ccon3)n(Cc3ccccc3F)n2)ncc1F` (centres unmarked) [Compound I-119]: the Emax was 40 to 60%. Further, under setting [1], the EC50 is 100 to 500 nM.

Turning to `O=C(O)[C@@H]1c2ccccc2CCN1c1nc(-c2cc(-c3ccon3)n(Cc3ccccc3F)n2)ncc1F` [Compound I-120], the Emax is 60 to 80%. Moreover, the EC50 under setting [1] is 100 to 500 nM.

Turning to `N#CC1CCN(c2nc(-c3cc(-c4ccon4)n(Cc4ccccc4F)n3)ncc2F)CC1` [Compound I-123], the Emax was in the range of 60 to 80%. In addition, under setting [1], the EC50 fell in the range of 100 to 500 nM.

Consider `CS(=O)(=O)N1CCN(c2nc(-c3cc(-c4ccon4)n(Cc4ccccc4F)n3)ncc2F)CC1` [Compound I-125], for which the Emax lay within 40 to 60%. The EC50 under setting [1] fell in the range of 1 to 100 nM.

Consider `CC(C)C[C@@H](C(=O)O)N(C)c1nc(-c2cc(-c3ccon3)n(Cc3ccccc3F)n2)ncc1F` [Compound I-137], for which the Emax was 80 to 100%. Moreover, the EC50 under setting [1] lay in the range of 100 to 500 nM.

With `CC(C)(C)OC(=O)NS(=O)(=O)N1CCN(c2nc(-c3cc(-c4ccon4)n(Cc4ccccc4F)n3)ncc2F)CC1` [Compound I-139], the Emax is 80 to 100%. The EC50 under setting [1] was in the range of 100 to 500 nM.

Take `N#CCNc1nc(-c2cc(-c3ccon3)n(Cc3ccccc3F)n2)ncc1F` [Compound I-141]: the Emax is 60 to 80%. The EC50 under setting [1] was 100 to 500 nM.

Regarding `O=C(NS(=O)(=O)C1CC1)C1CCCCN1c1nc(-c2cc(-c3ccon3)n(Cc3ccccc3F)n2)ncc1F` (centres unmarked) [Compound I-144], the Emax was 80 to 100%. The EC50 under setting [1] lay in the range of 500 to 1000 nM.

`Fc1ccccc1Cn1nc(-c2ncc(F)c(N3CCC(c4nnn[nH]4)CC3)n2)cc1-c1ccon1` [Compound I-145]: the Emax was 80 to 100%. Further, the EC50 under setting [1] is 1000 to 5000 nM.

For the molecule `Fc1ccccc1Cn1nc(-c2ncc(F)c(NCc3nn[nH]n3)n2)cc1-c1ccon1` [Compound I-146], the Emax fell in the range of 80 to 100%. Under setting [1], the EC50 fell in the range of 100 to 500 nM.

For the molecule `CC(C)(C)[C@@H](Nc1nc(-c2cc(-c3ccon3)n(Cc3ccccc3F)n2)ncc1F)C(=O)O` [Compound I-148], the Emax lay within 80 to 100%. Further, the EC50 under setting [1] is 100 to 500 nM.

In the case of `Fc1ccccc1Cn1nc(-c2nc(Cl)c(F)c(N3CCOCC3)n2)cc1-c1ccon1` [Compound I-150], the maximum response (Emax) lay in the range of 40 to 60%. Moreover, under setting [1], the EC50 lay within 100 to 500 nM.

On to `CC(C)(C)[C@H](Nc1nc(-c2cc(-c3ccon3)n(Cc3ccccc3F)n2)ncc1F)C(=O)O` [Compound I-151], for which the Emax lay in the range of 60 to 80%. Besides, the EC50 under setting [1] lay in the range of 500 to 1000 nM.

For `CC1(C)CN(c2nc(-c3cc(-c4ccon4)n(Cc4ccccc4F)n3)ncc2F)CC1C(=O)O` (centres unmarked) [Compound I-152], the Emax was in the range of 80 to 100%. The EC50 under setting [1] was 1 to 100 nM.

With `CN(c1ccccc1C(=O)O)c1nc(-c2cc(-c3ccon3)n(Cc3ccccc3F)n2)ncc1F` [Compound I-153], the Emax is 60 to 80%. Moreover, under setting [1], the EC50 is 100 to 500 nM.

Take `O=C(O)C1CCCCC1Nc1nc(-c2cc(-c3ccon3)n(Cc3ccccc3F)n2)ncc1F` (centres unmarked) [Compound I-154]: the Emax is 60 to 80%. Besides, the EC50 under setting [1] was in the range of 100 to 500 nM.

Regarding `OC[C@H]1CCCN1c1nc(-c2cc(-c3ccon3)n(Cc3ccccc3F)n2)ncc1F` [Compound I-155], the Emax was in the range of 60 to 80%. Moreover, the EC50 under setting [1] is 100 to 500 nM.

For `O=C(O)[C@H]1CCC[C@H]1Nc1nc(-c2cc(-c3ccon3)n(Cc3ccccc3F)n2)ncc1F` [Compound I-156], the Emax lay in the range of 80 to 100%. The EC50 under setting [1] is 100 to 500 nM.

On to `CC(C)C[C@H](Nc1nc(-c2cc(-c3ccon3)n(Cc3ccccc3F)n2)ncc1F)C(=O)NS(=O)(=O)C1CC1` [Compound I-157], for which the Emax fell in the range of 60 to 80%. Also, the EC50 under setting [1] was 100 to 500 nM.

With `CNS(=O)(=O)N1CCN(c2nc(-c3cc(-c4ccon4)n(Cc4ccccc4F)n3)ncc2F)CC1` [Compound I-158], the Emax was 60 to 80%. The EC50 under setting [1] was 1 to 100 nM.
